Experimental data taken from ChEMBL document CHEMBL1158576, “Coumabiocins A-F, aminocoumarins from an organic extract of Streptomyces sp. L-4-4” (2010).
The source made the active and inactive calls. The rule behind the calls is not given here.

What was measured:
[1] = test system: Streptomyces; test: Growth inhibition in Streptomyces 85E at 5 ug/disk by hyphae formation inhibition assay; assay type: functional, organism-based
[2] = test system: Streptomyces; test: Growth inhibition in Streptomyces 85E at 2.5 ug/disk by hyphae formation inhibition assay; assay type: functional, organism-based
[3] = test system: Streptomyces; test: Growth inhibition in Streptomyces 85E at 20 ug/disk by hyphae formation inhibition assay; assay type: functional, organism-based
[4] = test system: Streptomyces; test: Growth inhibition in Streptomyces 85E at 10 ug/disk by hyphae formation inhibition assay; assay type: functional, organism-based
[5] = test system: Streptomyces; test: Growth inhibition in Streptomyces 85E assessed as clear zone of inhibition at 10 ug/disk by hyphae formation inhibition assay; assay type: functional; details: read-out: IZ
[6] = test system: Streptomyces; test: Growth inhibition in Streptomyces 85E assessed as clear zone of inhibition at 20 ug/disk by hyphae formation inhibition assay; assay type: functional; details: read-out: IZ
[7] = test system: Streptomyces; test: Growth inhibition in Streptomyces 85E assessed as bald phenotype around disk at 5 ug/disk by hyphae formation inhibition assay; assay type: functional; details: read-out: IZ
[8] = test system: Streptomyces; test: Growth inhibition in Streptomyces 85E assessed as bald phenotype around disk at 20 ug/disk by hyphae formation inhibition assay; assay type: functional; details: read-out: IZ
[9] = test system: Streptomyces; test: Growth inhibition in Streptomyces 85E assessed as bald phenotype around disk at 10 ug/disk by hyphae formation inhibition assay; assay type: functional; details: read-out: IZ
[10] = test system: Streptomyces; test: Growth inhibition in Streptomyces 85E assessed as clear zone of inhibition at 5 ug/disk by hyphae formation inhibition assay; assay type: functional; details: read-out: IZ
[11] = test system: Streptomyces; test: Growth inhibition in Streptomyces 85E assessed as bald phenotype around disk at 2.5 ug/disk by hyphae formation inhibition assay; assay type: functional; details: read-out: IZ

In the case of `C=C(C)C(O)Cc1cc(C(=O)Nc2c(O)c3ccc(O)c(C)c3oc2=O)ccc1O` (configuration not stated), the “inhibition zone (IZ)” value [1] is reported as “inactive”, the “inhibition zone (IZ)” value [2] is reported as “inactive” and the “inhibition zone (IZ)” value [3] is reported as “inactive”. For the same compound, the “inhibition zone (IZ)” value [4] was “inactive”.
For `CO[C@@H]1[C@@H](OC(N)=O)[C@@H](O)[C@H](Oc2ccc3c(O)c(NC(=O)c4ccc5c(c4)CC(C(C)C)O5)c(=O)oc3c2C)OC1(C)C` (some centres not stated) [COMABIOCIN B], the zone of inhibition at 10 µg/disc [5] was 12 mm, the “inhibition zone (IZ)” value [2] was “inactive” and the zone of inhibition at 20 µg/disc [6] was 14 mm. For the same compound, the zone of inhibition at 5 µg/disc [7] was 10 mm.
For `CO[C@@H]1[C@@H](OC(N)=O)[C@@H](O)[C@H](Oc2ccc3c(O)c(NC(=O)c4ccc5c(c4)CC(C(C)(C)O)O5)c(=O)oc3c2C)OC1(C)C` (some centres not stated) [COUMABIOCIN A], the “inhibition zone (IZ)” value [1] was “inactive”, the “inhibition zone (IZ)” value [2] was “inactive” and the zone of inhibition at 20 µg/disc [6] was 13 mm. For the same compound, the “inhibition zone (IZ)” value [4] was “inactive”.
`CO[C@@H]1[C@@H](OC(N)=O)[C@@H](O)[C@H](Oc2ccc3c(O)c(NC(=O)c4ccc5c(c4)CCC(C)(C)O5)c(=O)oc3c2C)OC1(C)C` [COUMABIOCIN C] was tested, and the “inhibition zone (IZ)” value [1] was “inactive”, the zone of inhibition at 10 µg/disc [5] was 10 mm and the “inhibition zone (IZ)” value [2] was “inactive”. For the same compound, the zone of inhibition at 20 µg/disc [6] was 15 mm.
For `CO[C@@H]1[C@@H](OC(N)=O)[C@@H](O)[C@H](Oc2ccc3c(O)c(NC(=O)c4ccc5c(c4)CC(O)C(C)(C)O5)c(=O)oc3c2C)OC1(C)C` (some centres not stated) [COUMABIOCIN D], the “inhibition zone (IZ)” value [1] was “inactive”, the “inhibition zone (IZ)” value [2] was “inactive” and the zone of inhibition at 20 µg/disc [6] was 10 mm. The “inhibition zone (IZ)” value [4] was “inactive”.
`C=C(C)C(O)Cc1cc(C(=O)Nc2c(O)c3ccc(O[C@@H]4OC(C)(C)[C@H](OC)[C@@H](OC(N)=O)[C@H]4O)c(C)c3oc2=O)ccc1O` (some centres not stated) [COUMABIOCIN E] was tested, and the “inhibition zone (IZ)” value [1] was “inactive”, the “inhibition zone (IZ)” value [2] was “inactive” and the zone of inhibition at 20 µg/disc [6] was 11 mm. The “inhibition zone (IZ)” value [4] was “inactive”.
`CO[C@@H]1[C@@H](O)[C@@H](OC(N)=O)[C@H](Oc2ccc3c(O)c(NC(=O)c4ccc(O)c(CC=C(C)C)c4)c(=O)oc3c2C)OC1(C)C` [ISONOVOBIOCIN] was tested, and the “inhibition zone (IZ)” value [1] was “inactive”, the zone of inhibition at 20 µg/disc [8] was 10 mm and the zone of inhibition at 10 µg/disc [9] was 9 mm. For the same compound, the “inhibition zone (IZ)” value [2] was “inactive”.
With `CO[C@@H]1[C@@H](OC(N)=O)[C@@H](O)[C@H](Oc2ccc3c(O)c(NC(=O)c4ccc(O)c(CC=C(C)C)c4)c(=O)oc3c2C)OC1(C)C` [NOVOBIOCIN] the zone of inhibition at 10 µg/disc [5] was 18 mm, the zone of inhibition at 20 µg/disc [6] was 20 mm and the zone of inhibition at 5 µg/disc [10] was 15 mm. It also gave a zone of inhibition at 2.5 µg/disc [11] of 18 mm.
